We go through one compound from patent publication US20190369107A1, “ZWITTERIONIC NANOPARTICLES” (priority 2017, published 2019).

“Also recorded” adds a separate entry of the source.

The test system of this data set is A549 cells. Put plainly: Toxicity tests of QDQRs on A549 cells (Cellomics Array Scan, Hoechst 33342 / MitoTracker Deep Red). The format is cell-based, human. The conditions noted are these: 16 h incubation. As to the method: The culture medium consisted of 10% FCS in DMEM with 1% PenStrep and sodium pyruvate in each case. The incubation of the cells always took place at 37° C. and a CO2 content of 5%.
The zwitterionic Quantum Dots/Quantum Rods (QDQRs) nanoparticles were examined in various in vitro experiments with regard to their toxicity and non-specific cell uptake. Yellow-emitting QDQRs comprising the short- and long-chain zwitterionic ligand (QDQRs-17a and QDQRs-17b) were used for the studies to investigate a possible influence of the chain length of the ligand on the interactions of the QDQRs with cells. A549 cells were used for both toxicity and cell uptake studies. A549 cells are human basal epithelial cells derived from an adenocarcinoma of the lung which have been cultured as a cell line.
The toxicity of the zwitterionic QDQRs-17a and QDQRs-17b was tested using the Cellomics Array Scan. For the toxicity tests, A549 cells were plated on a 96-well plate and incubated with QDQR solutions in a concentration range of 25 to 500 nM. Cadmium chloride, which was used in a concentration range from 25 to 1,000 μM, was used as the positive control. The increase in the cadmium chloride concentration by a factor of 1,000 is due to the fact that a single QDQR of the tested samples contains about 8,200 cadmium atoms. Assuming that the totality of the nanoparticles dissolve and release the cadmium contained in them, the lowest concentration of 25 nM QDQRs used would correspond to a concentration of 205 μM cadmium chloride. After an incubation period of 16 hours, the cells were blended with a staining solution consisting of the cell nucleus dye Hoechst 33342 and the mitochondrial dye MitoTracker® Deep Red FM and then fixed with formaldehyde solution. The 96-well plates were then read out with the Cellomics Array Scan. A software was used to automatically determine the parameters number of cells, cell nucleus intensity and cell nucleus size using the intensity of the dye by Hoechst, and the transmembrane potential of the mitochondria on the basis of the mitochondrial dye. In addition, microscopic images of the cells were taken to control the number of cells and cell morphology.
For the toxicity tests, A549 cells were plated in culture medium on a 96-well plate (10,000 cells per well) and incubated overnight. When the medium had been sucked off, the samples to be tested (diluted with culture medium, 100 μL per well) were applied in different concentrations and incubated for 16 hours. The samples were then removed and the cells were mixed with 100 μL staining solution (final concentration: 75 nM MitoTracker® Deep Red and 2.5 μg/ml Hoechst 33342 in DMEM with 10% FCS) and incubated for a further 30 minutes. To fix the cells, the staining solution was removed and 100 μL of a warm fixing solution (3.7% formaldehyde in Dulbecco's PBS, DPBS) were added. After 20 minutes, the fixing solution was sucked off and washed twice with DPBS before the samples were measured on the Cellomics Array Scan.

On to `[Cl][Cd][Cl]` [cadmium chloride], for which the “morphological changes of the cells or cell nuclei in microscopic images” value (cadmium chloride at 100 μM or more) is “get globular”. The “number of cells per well” value (over the tested concentration range, FIG. 1 A) is “decreases significantly; also recorded: decreases noticeably”. Besides, the “cell nucleus intensity (Hoechst 33342)” value (over the tested concentration range, FIG. 1 B) is reported as “decreases significantly”. Besides, the cell nucleus size entry (over the tested concentration range, FIG. 1 C) was “decreases significantly”. The “transmembrane potential of the mitochondria” value (over the tested concentration range, FIG. 1 D) was “first increases in the concentration range from 50 to 100 μM and then decreases again”. In addition, the “concentration at which a toxic effect on the cells is shown” value (positive control tested 25 to 1,000 μM) is not below 100 µM.
